# Data: patent US8012711B2, “Methods of screening for compounds that reduce microbial resistance to fluoroquinolones” (priority 1999, dated 2011)
# Like-named read-outs stand apart in the source and are kept apart here.
# Columns and labels:
# [1] = test system: Escherichia coli AG100, AG112 and derived fluoroquinolone-resistant mutants with ΔacrAB; assay: MIC by broth microdilution, AcrAB-deleted strains; format: cell-based; conditions: for MIC: Escherichia coli; for Ofx MIC: AcrAB knocked out
# Protocol: (§1) Susceptibility testing. MICs of selected antimicrobial agents were determined by a standard broth microdilution procedure with cation-adjusted Mueller-Hinton broth (Becton Dickinson, Cockeysville, Md.) and an inoculum of 5×10^5 CFU/ml according to NCCLS performance and interpretive guidelines (NCCLS. 1997. Methods for dilution antimicrobial susceptibility. Tests for bacteria that grow aerobically—Fourth Edition; Approved Standard. NCCLS document M7-A4 (ISBN 1-56238-309-4). NCCLS, 940 West Valley Road, Suite 1400, Wayne, Pa. 19087). Antimicrobial agents on the commercially available microtiter plates (Merlin Diagnostics GmbH, Bornheim, Germany) included the FQs ciprofloxacin (CIP), enoxacin, fleroxacin, nor-flo-xacin, ofloxacin (OFL), pefloxacin, sparfloxacin (SPX), and trovafloxacin (TVA). They also included tetracycline (TET), chloramphenicol (CML), trimethoprim (TMP), cefoxitin (CFOX), cefaclor, cefixim and loracarbef. MICs of bile salts were determined by a broth macrodilution procedure: sodium cholate and sodium deoxycholate were serially diluted twofold in LB broth and tubes inoculated at 5×10^5 CFU/ml. MICs of both antibiotics and bile salts were determined twice in independent experiments with reproducible results.
# P1 transduction. […] DNA sequencing.
# [2] = test system: Escherichia coli K-12 AG100, its Mar mutant AG112 and derived fluoroquinolone-resistant mutants (acrAB+); assay: MIC by broth microdilution, acrAB+ strains; format: cell-based; conditions: for MIC: Escherichia coli; for Ofx MIC: with AcrAB
# Protocol: Selection of fluoroquinolone-resistant mutants. 1-AG100, 2°-AG100, 3*-AG100, 4*-AG100 and 1′-AG112, 2′-AG112, 3′-AG112 were sequential step mutants derived from AG 100 and AG112, respectively, on solid media. For each step, about 10^11 cells of an overnight culture were plated on several LB agar plates supplemented with increasing concentrations of OFL. Single colonies were further purified on OFL-supplemented agar plates. Mutant 2°-AG100 came out of one series, while mutants 3*- and 4*-AG100 came from a second series.
# as §1
# [3] = test system: Escherichia coli K-12 AG100, its Mar mutant AG112 and derived fluoroquinolone-resistant mutants (acrAB+); assay: MIC by broth microdilution, acrAB+ strains; format: cell-based
# E. coli = conditions: cited from earlier work
# [4] = strain 1-AG112 (1′-AG112), ΔacrAB
# [5] = strain 2-AG100 (2°-AG100), ΔacrAB
# [6] = strain 2-AG112 (2′-AG112), ΔacrAB
# [7] = strain 3-AG112 (3′-AG112), ΔacrAB
# [8] = strain 1-AG100, acrAB+, read-out: MIC
# [9] = strain 1-AG112 (1′-AG112), acrAB+, read-out: MIC
# [10] = strain 2-AG112 (2′-AG112), acrAB+, read-out: MIC
# [11] = strain 3*-AG100, acrAB+, read-out: MIC
# [12] = strain 3-AG112 (3′-AG112), acrAB+, read-out: MIC
# [13] = strain 4*-AG100, acrAB+, read-out: MIC
# [14] = strain AG100, acrAB+, read-out: MIC
# [15] = strain AG112 (Mar mutant), acrAB+
# [16] = strain 2-AG100 (2°-AG100), acrAB+, read-out: MIC
smiles,measurement,setting,value
"N[C@@H]1[C@H]2CN(c3nc4c(cc3F)c(=O)c(C(=O)O)cn4-c3ccc(F)cc3F)C[C@@H]12 [TVA, trovafloxacin]",MIC,"[1]; strain 1-AG100, ΔacrAB",0.06 µg/mL
same,MIC,[1]; [4],0.06 µg/mL
same,MIC,[1]; [5],0.06 µg/mL
same,MIC,[1]; [6],0.06 µg/mL
same,MIC,"[1]; strain 3*-AG100, ΔacrAB",0.06 µg/mL
same,MIC,[1]; [7],0.06 µg/mL
same,MIC,"[1]; strain 4*-AG100, ΔacrAB",0.125 µg/mL
same,MIC,"[1]; strain AG100, ΔacrAB",≤ 0.03 µg/mL
same,MIC,"[1]; strain AG112, ΔacrAB",≤ 0.03 µg/mL
same,MIC,[2]; [8],0.25 µg/mL
same,MIC,[2]; [9],0.5 µg/mL
same,MIC,"[2]; strain 2-AG100 (2°-AG100), acrAB+",0.25 µg/mL
same,MIC,[2]; [10],1 µg/mL
same,MIC,[2]; [11],0.5 µg/mL
same,MIC,[2]; [12],2 µg/mL
same,MIC,[2]; [13],2 µg/mL
same,MIC,[2]; [14],0.06 µg/mL
same,MIC,[2]; [15],0.125 µg/mL
"CC1COc2c(N3CCN(C)CC3)c(F)cc3c(=O)c(C(=O)O)cn1c23 (centres unmarked) [OFL, ofloxacin]",Enhancement of ofx resistance by in-vitro amplification,"[3]; AG102, three steps, 0.125 mg/l to 8 mg/l",64 fold
same,Ofx MIC,"[3]; AG102 series, 1st step mutant, with AcrAB",1.0 µg/mL
same,Ofx MIC,"[1]; AG100 series, 1st step mutant",0.06 µg/mL
same,Ofx MIC,"[1]; AG100 series, 2nd step mutant",0.06 µg/mL
same,Ofx MIC,"[1]; AG100 series, 3rd step mutant",0.06 µg/mL
same,Ofx MIC,"[1]; AG100 series, 4th step mutant",0.125 µg/mL
same,Ofx MIC,"[1]; AG100 series, parent",< 0.015 µg/mL
same,Ofx MIC,"[1]; AG102 series, 1st step mutant",0.06 µg/mL
same,Ofx MIC,"[1]; AG102 series, 2nd step mutant",0.06 µg/mL
same,Ofx MIC,"[1]; AG102 series, 3rd step mutant",0.06 µg/mL
same,Ofx MIC,"[1]; AG102 series, parent",< 0.015 µg/mL
same,MIC,"[1]; strain 1-AG100, ΔacrAB",0.06 µg/mL
same,MIC,[1]; [4],0.06 µg/mL
same,MIC,[1]; [5],0.06 µg/mL
same,MIC,[1]; [6],0.06 µg/mL
same,MIC,"[1]; strain 3*-AG100, ΔacrAB",0.06 µg/mL
same,MIC,[1]; [7],0.06 µg/mL
same,MIC,"[1]; strain 4*-AG100, ΔacrAB",0.125 µg/mL
same,MIC,"[1]; strain AG100, ΔacrAB",≤ 0.015 µg/mL
same,MIC,"[1]; strain AG112, ΔacrAB",≤ 0.015 µg/mL
same,Enhancement of ofx resistance by in-vitro amplification,"[2]; AG100, four steps, 0.03 mg/l to 4 mg/l",128 fold
same,Ofx MIC,"[2]; AG100 series, 1st step mutant",0.25 µg/mL
same,Ofx MIC,"[2]; AG100 series, 2nd step mutant",1.0 µg/mL
same,Ofx MIC,"[2]; AG100 series, 3rd step mutant",2.0 µg/mL
same,Ofx MIC,"[2]; AG100 series, 4th step mutant",4.0 µg/mL
same,Ofx MIC,"[2]; AG100 series, parent",0.03 µg/mL
same,Ofx MIC,"[2]; AG102 series, 2nd step mutant",4.0 µg/mL
same,Ofx MIC,"[2]; AG102 series, 3rd step mutant",8.0 µg/mL
same,Ofx MIC,"[2]; AG102 series, parent (Mar mutant)",0.125 µg/mL
same,MIC,[2]; [8],0.25 µg/mL
same,MIC,[2]; [9],1 µg/mL
same,MIC,[2]; [16],1 µg/mL
same,MIC,[2]; [10],4 µg/mL
same,MIC,[2]; [11],2 µg/mL
same,MIC,[2]; [12],8 µg/mL
same,MIC,[2]; [13],4 µg/mL
same,MIC,[2]; [14],0.03 µg/mL
same,MIC,[2]; [15],0.125 µg/mL
same,Fold increase of OFL MIC,"[2]; strain 1-AG100, as compared to AG100 (wild-type)",8 fold
same,Fold increase of OFL MIC,"[2]; strain 1-AG112 (1′-AG112), as compared to AG100 (wild-type)",32 fold
same,Fold increase of OFL MIC,"[2]; strain 2-AG100 (2°-AG100), as compared to AG100 (wild-type)",32 fold
same,Fold increase of OFL MIC,"[2]; strain 2-AG112, as compared to AG100 (wild-type)",128 fold
same,Fold increase of OFL MIC,"[2]; strain 3*-AG100, as compared to AG100 (wild-type)",64 fold
same,Fold increase of OFL MIC,"[2]; strain 3-AG112, as compared to AG100 (wild-type)",256 fold
same,Fold increase of OFL MIC,"[2]; strain 4*-AG100, as compared to AG100 (wild-type)",128 fold
same,Fold increase of OFL MIC,"[2]; strain AG112, as compared to AG100 (wild-type)",4 fold
same,Increase of resistance to OFL by the first mutation step,[2]; {},8 fold
Oc1cc(Cl)ccc1Oc1ccc(Cl)cc1Cl [triclosan],Reduction of resistance to triclosan,"E. coli; deletion of acrAB, all strains",10 fold
same,Increase of resistance to triclosan,E. coli; mutation in enoyl reductase (fabI),about 100 fold
same,Increase of resistance to triclosan,"E. coli; overexpression of acrAB, marA, or soxS",about two-fold
"CO[C@@]1(NC(=O)Cc2cccs2)C(=O)N2C(C(=O)O)=C(COC(N)=O)CS[C@@H]21 [CFOX, cefoxitin]",MIC,"[1]; strain 1-AG100, ΔacrAB",0.5 µg/mL
same,MIC,[1]; [4],1 µg/mL
same,MIC,[1]; [5],0.5 µg/mL
same,MIC,[1]; [6],0.5 µg/mL
same,MIC,"[1]; strain 3*-AG100, ΔacrAB",0.5 µg/mL
same,MIC,[1]; [7],0.5 µg/mL
same,MIC,"[1]; strain 4*-AG100, ΔacrAB",1 µg/mL
same,MIC,"[1]; strain AG100, ΔacrAB",0.5 µg/mL
same,MIC,"[1]; strain AG112, ΔacrAB",1 µg/mL
same,MIC,[2]; [8],4 µg/mL
same,MIC,[2]; [9],16 µg/mL
same,MIC,[2]; [16],16 µg/mL
same,MIC,[2]; [10],32 µg/mL
same,MIC,[2]; [11],32 µg/mL
same,MIC,[2]; [12],64 µg/mL
same,MIC,[2]; [13],32 µg/mL
same,MIC,[2]; [14],4 µg/mL
same,MIC,[2]; [15],32 µg/mL
